The values that follow come from US11964941B2, “5-Bromo-indirubins” (City of Hope, priority 2014, dated 2024).

Structures are written as SMILES.

One assay has as its target BRAF (Homo sapiens, UniProt P15056). Kind of assay: Kinase profiling in vitro, BRAF. The assay is classed as biochemical. The conditions noted are these: recombinant BRAF, 33P-ATP, 120 min. How it is done: (§1) The kinase assays were performed with recombinant proteins. Briefly, proteins, freshly prepared substrates and ^33P-ATP (specific activity 0.01 μCi/μl final) were mixed in reaction buffer (20 mM HEPES pH 7.5, 10 mM MgCl2, 1 mM EGTA, 0.02% Brij35, 0.02 mg/ml BSA, 0.1 mM Na3VO4, 2 mM DTT) in the presence of DMSO as control or 5IN-1NH1s. The mixtures were reacted for 120 min at room temperature. Samples were transferred onto P81 ion exchange paper and filters were extensively washed with 0.75% phosphoric acid. The radioactivities were monitored. IC50 values were determined using GraphPad Prism software.

The next assay deals with MOLM13 AML cells. Put plainly: MTS cell viability, MOLM13 AML cells (FLT3-ITD). The assay is classed as cell-based, human. The conditions noted are these: 48 h, read-out: IC50 for 50% inhibition of viability. Here is the method: (§2) MTS assays were performed for cell viability. Human cancer cells were seeded in 96-well plates (2500 cells/well for solid tumors, 5000 cells/well for blood tumors), incubated overnight at 37 C in 5% CO2, and exposed to 5IN-1NH1 or 5IN-1NH1s in a dose-dependent manner for 48 h. See FIGS. 1A-1B, 2A-2B, 3, 4A-4B, and 6A-6B. Dimethyl sulfoxide (DMSO) was used as the vehicle control. Viable cell numbers were determined by tetrazolium conversion to its formazan dye and absorbance was measured at 490 nm using an automated ELISA plate reader. Each experiment was performed in quadruplicate. IC50 values were determined using CalcuSyn software (BIOSOFT®, Cambridge GB).
(§3) Compound (1289) inhibits viabilities of MV4-11 and MOLM13 AML cells that harbor an internal tandem duplication (ITD) mutation. MTS assays were performed for cell viability. Human MV4-11 and MOLM13 AML cells (5000/well) were seeded in 96-well plates, incubated overnight at 37° C. in 5% CO2, and exposed to compound (1289) in a dose-dependent manner for 48 h. Dimethyl sulfoxide (DMSO) was used as the vehicle control. Viable cell numbers were determined by tetrazolium conversion to its formazan dye and absorbance was measured at 490 nm using an automated ELISA plate reader. Each experiment was performed in quadruplicate. IC50 values were determined using CalcuSyn software.

A further assay concerns the target PDGFR β (Homo sapiens, UniProt P09619). Kind of assay: In vitro kinase assay, recombinant PDGFR β. The assay is classed as biochemical. The conditions noted are these: 33P-ATP, 120 min. Here is the method: (§4) Compound (1289) inhibits activities of FMS, PDGFR α, PDGFR β and c-KIT in vitro. The kinase assays were performed with recombinant FMS, PDGFR α, PDGFR β and c-KIT proteins. Briefly, proteins, freshly prepared substrates and ^33P-ATP (specific activity 0.01 μCi/μl final) were mixed in reaction buffer (20 mM HEPES pH 7.5, 10 mM MgCl2, 1 mM EGTA, 0.02% Brij35, 0.02 mg/ml BSA, 0.1 mM Na3VO4, 2 mM DTT) in the presence of DMSO as control or compound (1289). The mixtures were reacted for 120 min at room temperature. Samples were transferred onto P81 ion exchange paper and filters were extensively washed with 0.75% phosphoric acid. The radioactivities were monitored.
as §1, with “recombinant class III receptor tyrosine kinase family” for “recombinant”

In a further assay the test system is A2058 melanoma cells. Kind of assay: MTS cell viability, A2058 melanoma cells. Type of assay: cell-based, human. The conditions noted are these: 48 h, read-out: IC50 for 50% inhibition of viability. How it is done:
as §2

In a further assay the test system is KCL22 CML cells. Kind of assay: MTS cell viability, KCL22 CML cells. The assay is classed as cell-based, human. The conditions noted are these: 48 h, read-out: IC50 for 50% inhibition of viability. Here is the method: as §2
For another assay, the system named is A549 lung cancer cells. Put plainly: MTS cell viability, A549 lung cancer cells. Type of assay: cell-based, human. The conditions noted are these: 48 h, read-out: IC50 for 50% inhibition of viability. How it is done:
as §2

Another assay addresses c-KIT (Homo sapiens, UniProt P10721). Put plainly: In vitro kinase assay, recombinant c-KIT. Type of assay: biochemical. The conditions noted are these: 33P-ATP, 120 min. How it is done:
as §4
as §1, with “recombinant class III receptor tyrosine kinase family” for “recombinant”

In another assay the target is ABL1 (T315I) (Homo sapiens, UniProt P00519, T315I). Put plainly: Kinase profiling in vitro, ABL1 (T315I). Conditions: recombinant ABL1 (T315I), 33P-ATP, 120 min. Type of assay: biochemical. How it is done:
as §1

The target of a further assay is ABL1 (Homo sapiens, UniProt P00519). Put plainly: Kinase profiling in vitro, ABL1. The assay is classed as biochemical. Conditions: recombinant ABL1, 33P-ATP, 120 min. Here is the method:
as §1

The target of another assay is CDK2/cyclin A (Homo sapiens, UniProt P24941). Kind of assay: Kinase profiling in vitro, CDK2/cyclin A. Type of assay: biochemical. The conditions noted are these: recombinant CDK2/cyclin A, 33P-ATP, 120 min. Here is the method:
as §1

In the next assay the target is FLT3 (ITD) (Homo sapiens, UniProt P36888). Kind of assay: In vitro kinase assay, recombinant FLT3 (ITD). Type of assay: biochemical. The conditions noted are these: 33P-ATP, 120 min. Here is the method: as §1, with “recombinant class III receptor tyrosine kinase family” for “recombinant”
as §1, with “Kinase” for “The kinase”, “FLT3, mutated FLT3-ITD and D835I mutant FLT3 kinases.” for “proteins.”, “compound (1289).” for “5IN-1NH1s.”

The test system of assay [1] is MDA-MB-231 breast cancer cells. Put plainly: MTS cell viability, MDA-MB-231 breast cancer cells. Type of assay: cell-based, human. The conditions noted are these: 48 h, read-out: IC50 for 50% inhibition of viability. Here is the method: as §2
The next assay has as its target IGF1R (Homo sapiens, UniProt P08069). Put plainly: Kinase profiling in vitro, IGF1R. The assay is classed as biochemical. The conditions noted are these: recombinant IGF1R, 33P-ATP, 120 min. Here is the method:
as §1

A further assay relates to MV4-11 AML cells. Kind of assay: MTS cell viability, MV4-11 AML cells (FLT3-ITD). Type of assay: cell-based, human. Conditions: 48 h, read-out: IC50 for 50% inhibition of viability. How it is done: as §2, §3
In a further assay the target is c-Src (Homo sapiens, UniProt P12931). Put plainly: Kinase profiling in vitro, c-Src. Type of assay: biochemical. Conditions: recombinant c-Src, 33P-ATP, 120 min. How it is done:
as §1

For another assay, the target named is PDGFR α (Homo sapiens, UniProt P16234). Kind of assay: In vitro kinase assay, recombinant PDGFR α. The assay is classed as biochemical. The conditions noted are these: 33P-ATP, 120 min. Here is the method: as §4
as §1, with “recombinant class III receptor tyrosine kinase family” for “recombinant”

For another assay, the target named is FMS (Homo sapiens, UniProt P07333). Put plainly: In vitro kinase assay, recombinant FMS. Type of assay: biochemical. The conditions noted are these: 33P-ATP, 120 min. Here is the method: as §4
as §1, with “recombinant class III receptor tyrosine kinase family” for “recombinant”

Sequence of BRAF (P15056 whole entry, species assumed): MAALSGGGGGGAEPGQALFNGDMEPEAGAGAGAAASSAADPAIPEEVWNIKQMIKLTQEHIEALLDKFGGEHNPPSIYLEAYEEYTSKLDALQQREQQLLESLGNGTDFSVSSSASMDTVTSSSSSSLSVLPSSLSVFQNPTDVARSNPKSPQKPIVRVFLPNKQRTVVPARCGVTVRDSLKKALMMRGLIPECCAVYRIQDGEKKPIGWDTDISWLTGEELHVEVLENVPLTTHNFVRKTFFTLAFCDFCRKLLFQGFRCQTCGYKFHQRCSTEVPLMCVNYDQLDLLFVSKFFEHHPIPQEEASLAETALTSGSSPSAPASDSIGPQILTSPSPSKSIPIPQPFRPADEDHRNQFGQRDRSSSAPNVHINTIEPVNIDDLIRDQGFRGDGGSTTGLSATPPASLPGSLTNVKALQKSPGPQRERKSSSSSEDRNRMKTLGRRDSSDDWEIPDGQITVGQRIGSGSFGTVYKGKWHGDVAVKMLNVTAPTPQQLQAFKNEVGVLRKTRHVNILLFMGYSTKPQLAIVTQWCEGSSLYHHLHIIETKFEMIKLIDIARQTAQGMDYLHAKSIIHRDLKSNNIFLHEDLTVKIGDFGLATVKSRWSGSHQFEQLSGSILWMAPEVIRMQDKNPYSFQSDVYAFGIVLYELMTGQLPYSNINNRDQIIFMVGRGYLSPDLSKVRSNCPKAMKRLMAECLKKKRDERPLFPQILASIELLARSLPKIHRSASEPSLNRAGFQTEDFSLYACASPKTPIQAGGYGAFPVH
Sequence of PDGFR β (P09619 33-1106, species assumed): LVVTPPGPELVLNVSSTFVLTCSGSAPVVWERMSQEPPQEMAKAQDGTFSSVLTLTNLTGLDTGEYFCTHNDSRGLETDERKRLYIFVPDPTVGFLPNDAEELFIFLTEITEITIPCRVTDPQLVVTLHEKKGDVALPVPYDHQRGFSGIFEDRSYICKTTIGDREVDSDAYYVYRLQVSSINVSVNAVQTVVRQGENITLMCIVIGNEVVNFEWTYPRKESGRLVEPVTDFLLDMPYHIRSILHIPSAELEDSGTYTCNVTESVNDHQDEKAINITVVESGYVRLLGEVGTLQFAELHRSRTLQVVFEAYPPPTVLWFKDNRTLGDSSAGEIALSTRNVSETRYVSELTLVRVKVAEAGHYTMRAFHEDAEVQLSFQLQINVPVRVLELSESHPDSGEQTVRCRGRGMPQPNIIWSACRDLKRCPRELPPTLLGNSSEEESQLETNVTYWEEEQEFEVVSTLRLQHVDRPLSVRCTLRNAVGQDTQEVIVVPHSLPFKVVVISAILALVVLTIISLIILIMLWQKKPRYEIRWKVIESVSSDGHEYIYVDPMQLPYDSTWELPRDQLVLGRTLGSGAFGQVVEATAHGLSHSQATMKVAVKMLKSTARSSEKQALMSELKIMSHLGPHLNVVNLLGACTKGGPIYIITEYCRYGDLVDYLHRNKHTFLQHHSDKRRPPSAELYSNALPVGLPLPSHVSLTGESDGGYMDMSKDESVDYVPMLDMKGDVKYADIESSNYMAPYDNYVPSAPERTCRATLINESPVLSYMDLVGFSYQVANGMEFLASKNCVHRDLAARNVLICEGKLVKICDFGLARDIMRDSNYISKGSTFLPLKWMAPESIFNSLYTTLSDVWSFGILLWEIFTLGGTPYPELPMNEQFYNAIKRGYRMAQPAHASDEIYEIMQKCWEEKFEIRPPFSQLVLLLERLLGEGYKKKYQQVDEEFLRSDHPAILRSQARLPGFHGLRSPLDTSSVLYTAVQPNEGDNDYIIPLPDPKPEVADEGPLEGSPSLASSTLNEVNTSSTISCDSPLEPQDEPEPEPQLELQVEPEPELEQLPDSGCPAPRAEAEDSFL
Sequence of c-KIT (P10721 26-976): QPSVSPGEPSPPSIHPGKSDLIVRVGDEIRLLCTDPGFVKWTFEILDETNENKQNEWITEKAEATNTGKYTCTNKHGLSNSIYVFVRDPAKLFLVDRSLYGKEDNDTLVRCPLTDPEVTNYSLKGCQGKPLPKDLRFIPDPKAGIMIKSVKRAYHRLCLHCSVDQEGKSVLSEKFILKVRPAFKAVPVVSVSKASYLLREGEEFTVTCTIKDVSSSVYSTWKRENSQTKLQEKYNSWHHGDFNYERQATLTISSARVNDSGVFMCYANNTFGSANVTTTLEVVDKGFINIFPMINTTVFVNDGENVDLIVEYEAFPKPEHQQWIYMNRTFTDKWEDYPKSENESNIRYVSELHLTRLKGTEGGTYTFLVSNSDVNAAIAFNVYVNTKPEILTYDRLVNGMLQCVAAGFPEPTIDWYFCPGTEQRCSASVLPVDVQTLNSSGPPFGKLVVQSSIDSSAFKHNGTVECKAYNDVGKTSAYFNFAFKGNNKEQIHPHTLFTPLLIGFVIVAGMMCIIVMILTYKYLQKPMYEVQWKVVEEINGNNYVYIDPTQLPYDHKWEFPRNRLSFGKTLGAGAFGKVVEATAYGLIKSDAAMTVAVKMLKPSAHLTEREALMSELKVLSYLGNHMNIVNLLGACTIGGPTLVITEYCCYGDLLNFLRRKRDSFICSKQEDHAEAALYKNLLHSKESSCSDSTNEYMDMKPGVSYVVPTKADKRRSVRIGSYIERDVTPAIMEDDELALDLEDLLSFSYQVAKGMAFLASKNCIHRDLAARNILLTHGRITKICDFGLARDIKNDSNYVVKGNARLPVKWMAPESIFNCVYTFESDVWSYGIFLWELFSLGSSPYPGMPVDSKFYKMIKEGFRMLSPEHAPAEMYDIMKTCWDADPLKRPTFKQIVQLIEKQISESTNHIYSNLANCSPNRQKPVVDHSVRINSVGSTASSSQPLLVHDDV
Sequence of IGF1R (P08069 31-1367, species assumed): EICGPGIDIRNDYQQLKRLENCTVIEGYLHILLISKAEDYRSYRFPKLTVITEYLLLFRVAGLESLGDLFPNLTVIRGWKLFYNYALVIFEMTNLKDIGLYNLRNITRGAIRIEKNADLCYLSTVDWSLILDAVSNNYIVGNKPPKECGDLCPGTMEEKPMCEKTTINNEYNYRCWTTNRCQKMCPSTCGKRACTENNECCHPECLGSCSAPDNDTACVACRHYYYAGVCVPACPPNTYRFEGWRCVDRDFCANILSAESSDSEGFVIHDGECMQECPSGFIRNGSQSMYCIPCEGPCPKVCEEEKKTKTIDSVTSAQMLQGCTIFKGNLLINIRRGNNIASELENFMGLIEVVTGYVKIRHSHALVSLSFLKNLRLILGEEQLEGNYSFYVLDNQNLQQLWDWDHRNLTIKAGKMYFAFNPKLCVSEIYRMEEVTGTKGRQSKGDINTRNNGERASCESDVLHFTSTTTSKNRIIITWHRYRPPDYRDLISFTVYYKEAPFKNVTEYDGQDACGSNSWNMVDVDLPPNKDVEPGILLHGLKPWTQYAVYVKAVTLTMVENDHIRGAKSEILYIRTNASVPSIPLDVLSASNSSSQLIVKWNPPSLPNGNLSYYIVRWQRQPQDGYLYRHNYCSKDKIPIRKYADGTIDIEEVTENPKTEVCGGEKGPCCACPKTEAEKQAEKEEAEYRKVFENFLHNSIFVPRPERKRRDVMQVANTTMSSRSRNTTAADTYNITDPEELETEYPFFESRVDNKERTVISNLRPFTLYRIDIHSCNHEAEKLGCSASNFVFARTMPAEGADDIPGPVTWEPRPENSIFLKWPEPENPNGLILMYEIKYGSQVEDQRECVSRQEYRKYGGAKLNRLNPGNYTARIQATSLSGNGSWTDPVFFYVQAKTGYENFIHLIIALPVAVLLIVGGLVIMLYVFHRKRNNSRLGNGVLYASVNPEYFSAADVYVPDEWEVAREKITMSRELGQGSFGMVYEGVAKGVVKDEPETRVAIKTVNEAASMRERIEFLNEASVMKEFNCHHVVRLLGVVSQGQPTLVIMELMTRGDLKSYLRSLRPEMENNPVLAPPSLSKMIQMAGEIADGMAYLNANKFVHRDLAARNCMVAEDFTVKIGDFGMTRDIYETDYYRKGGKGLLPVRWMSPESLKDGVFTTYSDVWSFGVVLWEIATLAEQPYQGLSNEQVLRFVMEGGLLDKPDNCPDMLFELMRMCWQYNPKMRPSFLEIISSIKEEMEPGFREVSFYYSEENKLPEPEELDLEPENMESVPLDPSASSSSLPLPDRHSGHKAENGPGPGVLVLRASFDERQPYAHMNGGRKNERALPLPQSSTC
Sequence of FMS (P07333 20-972, species assumed): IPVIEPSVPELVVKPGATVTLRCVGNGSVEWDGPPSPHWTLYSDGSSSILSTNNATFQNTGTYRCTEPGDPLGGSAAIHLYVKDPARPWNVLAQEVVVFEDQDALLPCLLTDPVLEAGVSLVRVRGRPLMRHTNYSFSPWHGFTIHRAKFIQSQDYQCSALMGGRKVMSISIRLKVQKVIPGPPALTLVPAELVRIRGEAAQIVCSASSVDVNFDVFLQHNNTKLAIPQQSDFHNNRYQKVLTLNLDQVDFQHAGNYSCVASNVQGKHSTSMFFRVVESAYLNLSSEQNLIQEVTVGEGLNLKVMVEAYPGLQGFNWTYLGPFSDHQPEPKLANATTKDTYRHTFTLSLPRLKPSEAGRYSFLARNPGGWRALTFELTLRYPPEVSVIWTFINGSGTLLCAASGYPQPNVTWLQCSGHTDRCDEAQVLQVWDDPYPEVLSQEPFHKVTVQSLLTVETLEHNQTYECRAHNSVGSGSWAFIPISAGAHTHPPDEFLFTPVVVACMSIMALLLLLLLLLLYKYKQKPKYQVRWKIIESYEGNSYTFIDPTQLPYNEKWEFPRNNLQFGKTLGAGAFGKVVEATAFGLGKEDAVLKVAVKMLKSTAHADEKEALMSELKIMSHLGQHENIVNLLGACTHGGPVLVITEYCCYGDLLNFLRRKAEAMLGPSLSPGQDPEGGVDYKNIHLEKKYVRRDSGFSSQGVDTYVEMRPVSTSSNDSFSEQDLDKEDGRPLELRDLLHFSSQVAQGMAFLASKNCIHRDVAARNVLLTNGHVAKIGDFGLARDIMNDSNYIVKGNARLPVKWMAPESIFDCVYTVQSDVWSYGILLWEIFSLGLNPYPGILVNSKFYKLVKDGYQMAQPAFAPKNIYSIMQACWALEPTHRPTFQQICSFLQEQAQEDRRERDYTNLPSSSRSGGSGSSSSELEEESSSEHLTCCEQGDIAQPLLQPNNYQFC

By IC50 is commonly meant the concentration needed to halve the response being measured. As for `CNCCO/N=C1/C(=C2/C(=O)Nc3ccc(Br)cc32)Nc2ccccc21` [5IN-1NH1s], the IC50 on BRAF was found to be 7410 nM; in the assay on MOLM13 AML cells it was 7.5 nM; on PDGFR β, 9.1 nM; in the assay with A2058 melanoma cells it was 88.9 nM; in the assay with KCL22 CML cells, 72.8 nM; in the assay with A549 lung cancer cells, 46.1 nM. The half-maximal inhibitory concentration (IC50) at c-KIT amounted to 321 nM; at ABL1 (T315I), 3400 nM; on ABL1, 434 nM; on CDK2/cyclin A, 1.08 nM; on FLT3 (ITD) it was 1.09 nM; in assay [1], 33 nM. Further, the IC50 at IGF1R came out at 31.8 nM; in the assay on MV4-11 AML cells, 3.7 nM; on c-Src it was 13.8 nM; at PDGFR α, 72.2 nM; at FMS it was 16 nM.
